Test results reported in ChEMBL document CHEMBL1201862, “PubChem BioAssay data set” (2004).
Several values for one entry are separate records, joined by “and”; a condition that tells them apart may be missing. Equal entries are not always repeated.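 Values below derive from 48-hour exposures of cells grown in 96-well plates, with endpoints linearly interpolated between the two concentrations bracketing the appropriate inhibition level. GI50: concentration for 50% inhibition of growth.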 Activity calls are given as the source filed them. Rule as the data show it: active = GI50 up to about 1.1 µM and inactive = higher.

Tests used:
Assay in all cases: growth of human tumour cells (NCI), 48 h
UO-31 = system: UO-31
MDA-MB-231 = system: MDA-MB-231
NCI-H226 = system: NCI-H226
MDA-N = system: MDA-N
HOP-92 = system: HOP-92
HCT-116 = system: HCT-116
ACHN = system: ACHN
UACC-62 = system: UACC-62
UACC-257 = system: UACC-257
SK-MEL-28 = system: SK-MEL-28
COLO 205 = system: COLO 205
NCI-H460 = system: NCI-H460
Hs-578T = system: Hs-578T
A498 = system: A498
SN12C = system: SN12C
T47D = system: T47D
MOLT-4 = system: MOLT-4
CAKI-1 = system: CAKI-1
DMS-273 = system: DMS-273
LXFL 529 = system: LXFL 529

Row | SMILES | GI50 (UO-31) | GI50 (MDA-MB-231) | GI50 (NCI-H226) | GI50 (MDA-N) | GI50 (HOP-92) | GI50 (HCT-116) | GI50 (ACHN) | GI50 (UACC-62) | GI50 (UACC-257) | GI50 (SK-MEL-28) | GI50 (COLO 205) | GI50 (NCI-H460) | GI50 (Hs-578T) | GI50 (A498) | GI50 (SN12C) | GI50 (T47D) | GI50 (MOLT-4) | GI50 (CAKI-1) | GI50 (DMS-273) | GI50 (LXFL 529)
1 | CC(=O)Oc1ccc2c(C)cc(=O)oc2c1 | > 100 µM (inactive) | > 100 µM (inactive) | > 100 µM (inactive) | > 100 µM (inactive) | > 100 µM (inactive) | > 100 µM (inactive) | > 100 µM (inactive) | > 100 µM (inactive) | > 100 µM (inactive) | > 100 µM (inactive) | > 100 µM (inactive) | > 100 µM (inactive) | > 100 µM (inactive) | > 100 µM (inactive) | > 100 µM (inactive) | > 100 µM (inactive) and 61.7 µM (inactive) | > 100 µM (inactive) | > 100 µM (inactive) | – | –
2 | N=C(N)SCc1ccc(Cl)c2ccccc12.O=[N+]([O-])c1ccc(O)c([N+](=O)[O-])c1 | 12.3 µM (inactive) | 12.7 µM (inactive) | 12.4 µM (inactive) | 11.1 µM (inactive) | 6.67 µM (inactive) | 13.4 µM (inactive) | 12.9 µM (inactive) | 12.5 µM (inactive) | 4.19 µM (inactive) | 12.6 µM (inactive) | 6.81 µM (inactive) | 7.55 µM (inactive) | 20.7 µM (inactive) | 9.4 µM (inactive) | 11 µM (inactive) | 5.35 µM (inactive) | 1.4 µM (inactive) | 11.7 µM (inactive) | – | –
3 | COc1ccccc1/C=C/C(=O)c1sc(-c2cccnc2)nc1C | > 100 µM (inactive) | – | > 100 µM (inactive) | – | > 100 µM (inactive) | – | > 100 µM (inactive) | > 100 µM (inactive) | > 100 µM (inactive) | > 100 µM (inactive) | > 100 µM (inactive) | > 100 µM (inactive) | – | > 100 µM (inactive) | > 100 µM (inactive) | – | 61.7 µM (inactive) | > 100 µM (inactive) | > 100 µM (inactive) | –
4 | Cc1cc(O)c2c3c1C(=O)Oc1c(CO)c(O)c(C(=O)O)c(c1O3)C=NN=Cc1c3c(c(CO)c(O)c1C(=O)O)OC(=O)c1c(C)cc(O)c(c1O3)C=NN=C2 | > 100 µM (inactive) | – | > 100 µM (inactive) | – | > 100 µM (inactive) | > 100 µM (inactive) | > 100 µM (inactive) | > 100 µM (inactive) | > 100 µM (inactive) | > 100 µM (inactive) | > 100 µM (inactive) | > 100 µM (inactive) | – | > 100 µM (inactive) | > 100 µM (inactive) | – | – | > 100 µM (inactive) | – | > 100 µM (inactive)
5 | CO[C@H](c1ccccc1)[C@H](C)N(C)c1ccc2ccccc2c1C1=NC(C)(C)CO1 | 13.7 µM (inactive) | – | 16.2 µM (inactive) | – | 15.7 µM (inactive) | 10.8 µM (inactive) | 16 µM (inactive) | 33.1 µM (inactive) | 15.7 µM (inactive) | 18.3 µM (inactive) | 13.8 µM (inactive) | 16 µM (inactive) | – | – | 18 µM (inactive) | – | 9.02 µM (inactive) | > 10 µM (inactive) | 19.2 µM (inactive) | 14.9 µM (inactive)
6 | O=[N+]([O-])C1=Cc2cc(Cl)ccc2OC1c1cccc2ccccc12 (centres undefined) | 1.26 µM (inactive) | 1.77 µM (inactive) | 1.62 µM (inactive) | 1 µM (active) | 1.34 µM (inactive) | 0.187 µM (active) | 1.52 µM (inactive) | 1.57 µM (inactive) | 1.34 µM (inactive) | 1.34 µM (inactive) | 0.719 µM (active) | 1.7 µM (inactive) | 0.692 µM (active) | 1.86 µM (inactive) | 0.723 µM (active) | 0.442 µM (active) | 0.251 µM (active) | 0.366 µM (active) | – | –
7 | Cc1no[n+]([O-])c1/C=N/NS(=O)(=O)c1ccccc1 | > 100 µM (inactive) | – | – | – | > 100 µM (inactive) | > 100 µM (inactive) | – | > 100 µM (inactive) | – | > 100 µM (inactive) | > 100 µM (inactive) | – | – | 75.3 µM (inactive) | > 100 µM (inactive) | – | > 100 µM (inactive) | > 100 µM (inactive) | – | > 100 µM (inactive)
8 | Nc1nc(N)c2cc(CNc3ccc(C(=O)NC(CC(=O)O)C(=O)O)c(Cl)c3)ccc2n1 (centres undefined) | 0.918 µM (active) | 337 µM (inactive) | > 21.6 µM (inactive) | < 0.01 µM (active) | > 87.5 µM (inactive) | < 0.01 µM (active) | 0.0253 µM (active) | 0.0893 µM (active) | 0.259 µM (active) | 0.288 µM (active) | 0.861 µM (active) | 0.0256 µM (active) | 357 µM (inactive) | 0.171 µM (active) | 0.278 µM (active) | 0.524 µM (active) | 0.0175 µM (active) | 0.0877 µM (active) | 0.0552 µM (active) | –
9 | O=C1C(Br)=Cc2c(Cl)sc(Cl)c21 | 2.82 µM (inactive) | 3.13 µM (inactive) | > 100 µM (inactive) | 2.44 µM (inactive) | 2.84 µM (inactive) | 2.03 µM (inactive) | 2.91 µM (inactive) | 7.91 µM (inactive) | 5.45 µM (inactive) | 11.6 µM (inactive) | 6.76 µM (inactive) | 18.3 µM (inactive) | 21.8 µM (inactive) | 23.9 µM (inactive) | 5.51 µM (inactive) | 2.42 µM (inactive) | 0.515 µM (active) | 3.05 µM (inactive) | – | –
10 | CC1=C(C(=O)Nc2cc(=O)n(C)c(=O)n2C)C(c2cccc([N+](=O)[O-])c2)C(C(=O)Nc2cc(=O)n(C)c(=O)n2C)=C(C)N1 | 56.1 µM (inactive) | – | > 100 µM (inactive) | – | 58.7 µM (inactive) | – | 89.7 µM (inactive) | – | > 100 µM (inactive) | > 100 µM (inactive) | > 100 µM (inactive) | 62.7 µM (inactive) | – | 49.5 µM (inactive) | > 100 µM (inactive) | – | 42.6 µM (inactive) | > 100 µM (inactive) | – | > 100 µM (inactive)
11 | CCOP(=O)(O)C(C)(C)NC | > 100 µM (inactive) | > 100 µM (inactive) | > 100 µM (inactive) | > 100 µM (inactive) | > 100 µM (inactive) | > 100 µM (inactive) | > 100 µM (inactive) | > 100 µM (inactive) | > 100 µM (inactive) | > 100 µM (inactive) | > 100 µM (inactive) | > 100 µM (inactive) | > 100 µM (inactive) | > 100 µM (inactive) | > 100 µM (inactive) | > 100 µM (inactive) | > 100 µM (inactive) | > 10 µM (inactive) | – | –
12 | O=C1N[C@H](Cc2c[nH]cn2)C(=O)N2CCC[C@@H]12 | > 100 µM (inactive) | – | – | – | > 100 µM (inactive) | – | > 100 µM (inactive) | > 100 µM (inactive) | > 100 µM (inactive) | > 100 µM (inactive) | > 100 µM (inactive) | > 100 µM (inactive) | – | – | > 100 µM (inactive) | – | > 100 µM (inactive) | > 100 µM (inactive) | > 100 µM (inactive) | > 100 µM (inactive)
13 | COC(=O)c1nc2n(n1)-c1ccccc1C(=O)N(Cc1ccccc1)C2 | > 100 µM (inactive) | > 100 µM (inactive) | > 100 µM (inactive) | > 100 µM (inactive) | > 100 µM (inactive) | > 100 µM (inactive) | > 100 µM (inactive) | > 100 µM (inactive) | > 100 µM (inactive) | > 100 µM (inactive) | > 100 µM (inactive) | > 100 µM (inactive) | > 100 µM (inactive) | > 100 µM (inactive) | > 100 µM (inactive) | > 100 µM (inactive) | > 100 µM (inactive) | > 100 µM (inactive) | – | –
14 | CC1CCC2(OC1)OC1CC3C4CC=C5CC(OC6OC(CO)C(OC7OC(C)C(OC8OC(C)C(O)C(O)C8O)C(O)C7O)C(O)C6OC6OC(C)C(O)C(O)C6O)CCC5(C)C4CCC3(C)C1C2C (centres undefined) | 0.216 µM (active) | 0.0628 µM (active) | 1.36 µM (inactive) | 0.4 µM (active) | 0.0703 µM (active) | 0.521 µM (active) | 1.47 µM (inactive) | 0.311 µM (active) | 0.74 µM (active) | 0.612 µM (active) | 1.28 µM (inactive) | 1.61 µM (inactive) | 0.264 µM (active) | 0.291 µM (active) | 0.267 µM (active) | 1.24 µM (inactive) | 0.237 µM (active) | 1.29 µM (inactive) | – | –
15 | Cc1c(Cl)c2ccccc2n1S(=O)(=O)c1ccccc1 | 26.1 µM (inactive) | – | 37 µM (inactive) | – | 15.7 µM (inactive) | 39.2 µM (inactive) | 38.1 µM (inactive) | 87.3 µM (inactive) | 53.1 µM (inactive) | > 100 µM (inactive) | > 100 µM (inactive) | 44.6 µM (inactive) | – | – | – | – | 37.4 µM (inactive) | 58.7 µM (inactive) | 38.7 µM (inactive) | 42.1 µM (inactive)
16 | CC(C(=O)c1ccc(Cl)cc1)C1OC(=O)C(Cl)=C1Cl (centres undefined) | 95.9 µM (inactive) | – | 68.2 µM (inactive) | – | – | – | 41.3 µM (inactive) | 19.7 µM (inactive) | 35.6 µM (inactive) | 27.3 µM (inactive) | 23.9 µM (inactive) | > 100 µM (inactive) | – | 41.5 µM (inactive) | 24.6 µM (inactive) | – | 24.8 µM (inactive) | > 10 µM (inactive) | – | 19.8 µM (inactive)
17 | CCCC(C)C[C@@H](C)CC(C)/C=C(\C)c1oc(=O)c(C)c(O)c1C.CC[C@@H](C)C[C@@H](C)C[C@@H](C)/C=C(\C)c1oc(=O)c(C)c(O)c1C (some centres undefined) | 13.6 µM (inactive) | – | 15.5 µM (inactive) | – | – | 17.6 µM (inactive) | 5.57 µM (inactive) | – | 14.7 µM (inactive) | 14.8 µM (inactive) | 28.2 µM (inactive) | 9.29 µM (inactive) | – | – | 15.3 µM (inactive) | – | – | 13.4 µM (inactive) | 18.5 µM (inactive) | 13.2 µM (inactive)
